# Measured values taken from patent US10538535B2, “Antitumoral compounds” (priority 2017, dated 2020).
# Read-outs that look alike come from different tables or passages of the source.
# Columns and labels:
# A549 cells = assay: cells; settings: for CC50: read-out: LC50
# Method in brief: (§1)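 Cells seeded at 5000/well, attached 18 h, then treated 72 h with ten 2/5 serial dilutions (10 to 0.003 μg/mL, 1% final DMSO) in triplicate. Growth measured by SRB staining after glutaraldehyde fixation, with time-zero plate; values from NCI algorithm and four-parameter logistic fit.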
# HT29 cells = assay: cells; settings: Homo sapiens, HT-29, 72 h; for CC50: read-out: LC50
# Method in brief: as §1
# MDA-MB-231 cells = assay: cells; settings: for CC50: read-out: LC50
# Method in brief: as §1
# PSN1 cells = assay: cells; settings: for CC50: read-out: LC50
# Method in brief: as §1
# [1] = MTMD (Maximum Tolerated Multiple Dose) determination, iv weekly x3; assay type: in vivo; settings: mice; iv/Q7dx3
# Excerpt: (§2) Female CD-1 or Athymic Nude-Fox1 nu/nu mice (Envigo) were utilized for all experiments. […] Animals were acclimated for five days prior to being individually tattoo-identified. Animal protocols were reviewed and approved according to the regional Institutional Animal Care and Use Committees.
# (§3) Mice were randomly allocated into experimental groups and intravenously administered, once for the MTD (Maximum Tolerated Dose) determination or one administration a week during three consecutive weeks, for the MTMD (Maximum Tolerated Multiple Dose) determination study. The animals were administered with white formulation or with compound dissolved in the experimental formulation at different concentrations. The volume administered was always 10 mL/kg. Once administered, animals were monitored for clinical signs of systemic toxicity, changes in body weight and mortality up to 14 days after the administration.
# PC-3 tumors = settings: 12-R 0.05 mg/kg
# Excerpt: In this model, instead of male, female animals were used because PC-3 growth is not hormone dependant.
# H82 tumors = assay: In vivo xenograft, human lung (SCLC) H82; settings: iv Days 0, 7, 14, 12-R 0.05 mg/kg, Compound D 0.5 mg/kg
# Description: (§4) Female athymic nu/nu mice (Harlan Laboratories Models, S. L. Barcelona, Spain or Envigo, Spain) were utilized for all experiments. Animal were housed in individually ventilated cages Sealsafe® Plus, Techniplast S.P.A.), up to ten per cage on a 12-hour light-dark cycle at 21-23° C. and 40-60% humidity. Mice were allowed free access to irradiated standard rodent diet (Tecklad 2914C) and sterilized water. Animals were acclimated for at least 5 days prior to tumor implantation with a tumor cell suspension.
# H82 cells were grown as a suspension and maintained by addition of fresh medium, as the cell density increases, every 2 to 3 days. Every week, culture was reestablished by centrifugation of the suspension with subsequent resuspension in fresh medium at a concentration of 1×10^5 cell/ml. Animals were subcutaneously implanted (on the right flank using 26 G needle and a 1 cc syringe) at 4-6 weeks of age with 5×10^6 H82 cells, suspended in 0.05 mL of a solution consisting of 50% Matrigel® (Corning Incorporated Life Sciences) and 50% medium without serum or antibiotics.
# (§5) Treatment tolerability was assessed by monitoring body weight evolution, clinical signs of systemic toxicity, as well as evidences of local damage in the injection site.
# (§6) In xenograft studies with other cell lines: • Tumor volume was calculated using the equation (a·b^2)/2, where a: length (longest diameter) and b: width (shortest diameter) were measured in mm by using digital caliper (Fowler Sylvac, S235PAT).
# (§7) Treatments producing >20% lethality and/or 20% net body weight loss were considered toxic.
# (§8) Tables and figures summarize the data obtained from complete experimental groups, i.e. those groups keeping the initial number of animals, n=8-10.
# H526 tumors = assay: In vivo xenograft, human lung (SCLC) H526; settings: iv Days 0, 7, 14, 12-R 0.05 mg/kg, Compound D 0.5 mg/kg
# Description: as §4
# H526 cells were grown as a suspension and maintained by addition of fresh medium, as the cell density increases, every 2 to 3 days. Every week, culture was reestablished by centrifugation of the suspension with subsequent resuspension in fresh medium at a concentration of 1×10^5 cell/mL. Each animal was subcutaneously implanted (on the right flank using 26 G needle and a 1 cc syringe) at 4-6 weeks of age with 5×10^6 H526 cells suspended in 0.05 mL of a solution consisting of 50% Matrigel® (Corning Incorporated Life Sciences) and 50% medium without serum or antibiotics.
# as §5, §7
# [2] = MTD (Maximum Tolerated Dose) determination, single iv administration; assay type: in vivo; settings: mice; iv/SD
# Excerpt: as §2, §3
# [3] = MDA-MB-231, 72 hours treatment, SRB
# Description for DU-145 tumors: as §4
# Culture cells were passaged every 3 to 5 days upon reaching confluence Each male athymic mice was subcutaneously implanted (on the right flank using a 26 G needle and a 1 cc syringe) at 4-6 weeks of age with 5×10^6 DU-145 cells suspended in 0.05 mL of a solution consisting of 50% Matrigel® Matrix (Corning Incorporated Life Sciences) and 50% medium without serum or antibiotics.
# as §5, §6, §7, §8
smiles,measurement,setting,value
COc1ccc2oc3c(c2c1)CCN[C@]31CS[C@@H]2c3c(OC(C)=O)c(C)c4c(c3[C@H](COC1=O)N1[C@@H]2[C@H]2c3c(cc(C)c(OC)c3O)C[C@@H]([C@@H]1O)N2C)OCO4 [Compound 35],GI50,"A549 cells; Homo sapiens, A549, 72 h",8.14 nM
same,CC50,"A549 cells; Homo sapiens, A549, 72 h",> 127 nM
same,IC (TGI),"A549 cells; Homo sapiens, A549, 72 h, read-out: TGI",8.78 nM
same,GI50,HT29 cells,7.89 nM
same,CC50,HT29 cells,> 127 nM
same,IC (TGI),HT29 cells; read-out: TGI,8.65 nM
same,GI50,"MDA-MB-231 cells; Homo sapiens, MDA-MB-231, 72 h",4.58 nM
same,CC50,"MDA-MB-231 cells; Homo sapiens, MDA-MB-231, 72 h",16.5 nM
same,IC (TGI),"MDA-MB-231 cells; Homo sapiens, MDA-MB-231, 72 h, read-out: TGI",8.27 nM
same,GI50,"PSN1 cells; Homo sapiens, PSN1, 72 h",6.24 nM
same,CC50,"PSN1 cells; Homo sapiens, PSN1, 72 h",14 nM
same,IC (TGI),"PSN1 cells; Homo sapiens, PSN1, 72 h, read-out: TGI",9.03 nM
same,MTMD,[1],0.25 mg/kg
COc1c(C)cc2c(c1O)[C@@H]1[C@@H]3[C@@H]4SC[C@]5(N[C@@H](CN)Cc6c5[nH]c5ccccc65)C(=O)OC[C@@H](c5c6c(c(C)c(OC(C)=O)c54)OCO6)N3[C@@H](O)[C@H](C2)N1C [Compound 12-R],CC50,"PSN1 cells; Homo sapiens, PSN1, 72 h",> 128 nM
same,Median Tumor Volume,"PC-3 tumors; Day 0, iv Days 0, 7 and 14, 12-S […]",129.0 mm^3
same,Median Tumor Volume,"PC-3 tumors; Day 2, iv Days 0, 7 and 14, 12-S […]",136.2 mm^3
same,Median Tumor Volume,"PC-3 tumors; Day 4, iv Days 0, 7 and 14, 12-S […]",144.2 mm^3
same,Median Tumor Volume,"PC-3 tumors; Day 7, iv Days 0, 7 and 14, 12-S […]",172.2 mm^3
same,Median Tumor Volume,"PC-3 tumors; Day 11, iv Days 0, 7 and 14, 12-S […]",183.6 mm^3
same,Median Tumor Volume,"PC-3 tumors; Day 14, iv Days 0, 7 and 14, 12-S […]",205.2 mm^3
same,Median Tumor Volume,"PC-3 tumors; Day 16, iv Days 0, 7 and 14, 12-S […]",256.0 mm^3
same,Median Tumor Volume,"PC-3 tumors; Day 18, iv Days 0, 7 and 14, 12-S […]",325.7 mm^3
same,Median Tumor Volume,"PC-3 tumors; Day 21, iv Days 0, 7 and 14, 12-S […]",322.2 mm^3
same,Median Tumor Volume,"PC-3 tumors; Day 23, iv Days 0, 7 and 14, 12-S […]",407.8 mm^3
same,Median Tumor Volume,"PC-3 tumors; Day 25, iv Days 0, 7 and 14, 12-S […]",419.9 mm^3
same,Median Tumor Volume,"PC-3 tumors; Day 29, iv Days 0, 7 and 14, 12-S […]",459.1 mm^3
same,Median Tumor Volume,"PC-3 tumors; Day 32, iv Days 0, 7 and 14, 12-S […]",512.1 mm^3
same,Median Tumor Volume,"PC-3 tumors; Day 35, iv Days 0, 7 and 14, 12-S […]",579.2 mm^3
same,Median Tumor Volume,"PC-3 tumors; Day 37, iv Days 0, 7 and 14, 12-S […]",613.8 mm^3
same,Median Tumor Volume,"PC-3 tumors; Day 39, iv Days 0, 7 and 14, 12-S […]",764.1 mm^3
same,Median Tumor Volume,"PC-3 tumors; Day 42, iv Days 0, 7 and 14, 12-S […]",785.0 mm^3
same,Median Tumor Volume,"PC-3 tumors; Day 44, iv Days 0, 7 and 14, 12-S […]",845.5 mm^3
same,Median Tumor Volume,"PC-3 tumors; Day 46, iv Days 0, 7 and 14, 12-S […]",748.0 mm^3
same,Median Tumor Volume,"PC-3 tumors; Day 49, iv Days 0, 7 and 14, 12-S […]",808.7 mm^3
same,Median Tumor Volume,"PC-3 tumors; Day 51, iv Days 0, 7 and 14, 12-S […]",855.8 mm^3
same,Median Tumor Volume,"PC-3 tumors; Day 56, iv Days 0, 7 and 14, 12-S […]",1125.2 mm^3
same,Median Tumor Volume,"H82 tumors; Table 33, Day 0.0",170.50 mm^3
same,Median Tumor Volume,"H82 tumors; Table 33, Day 2.0",381.40 mm^3
same,Median Tumor Volume,"H82 tumors; Table 33, Day 5.0",793.20 mm^3
same,Median Tumor Volume,"H82 tumors; Table 33, Day 7.0",1187.20 mm^3
same,Median Tumor Volume,"H82 tumors; Table 33, Day 9.0",1699.30 mm^3
same,Median Tumor Volume,"H82 tumors; Table 33, Day 12.0",2125.60 mm^3
same,Median Tumor Volume,"H526 tumors; Table 32, Day 0.0",214.20 mm^3
same,Median Tumor Volume,"H526 tumors; Table 32, Day 2.0",404.50 mm^3
same,Median Tumor Volume,"H526 tumors; Table 32, Day 4.0",680.50 mm^3
same,Median Tumor Volume,"H526 tumors; Table 32, Day 7.0",995.20 mm^3
same,Median Tumor Volume,"H526 tumors; Table 32, Day 9.0",1290.50 mm^3
same,Median Tumor Volume,"H526 tumors; Table 32, Day 11.0",1568.00 mm^3
same,Median Tumor Volume,"H526 tumors; Table 32, Day 14.0",2025.00 mm^3
COc1c(C)cc2c(c1O)[C@@H]1[C@@H]3[C@@H]4SC[C@]5(N[C@H](CO)Cc6c5oc5ccccc65)C(=O)OC[C@@H](c5c6c(c(C)c(OC(C)=O)c54)OCO6)N3[C@@H](O)[C@H](C2)N1C [Compound 39-S],CC50,HT29 cells,> 127 nM
same,Median Tumor Volume,"DU-145 tumors; Day 0, 39-S 1.00 mg/Kg iv Days 0, 7 and 14",179.9 mm^3
same,Median Tumor Volume,"DU-145 tumors; Day 2, 39-S 1.00 mg/Kg iv Days 0, 7 and 14",199.9 mm^3
same,Median Tumor Volume,"DU-145 tumors; Day 4, 39-S 1.00 mg/Kg iv Days 0, 7 and 14",222.2 mm^3
same,Median Tumor Volume,"DU-145 tumors; Day 7, 39-S 1.00 mg/Kg iv Days 0, 7 and 14",340.5 mm^3
same,Median Tumor Volume,"DU-145 tumors; Day 9, 39-S 1.00 mg/Kg iv Days 0, 7 and 14",354.1 mm^3
same,Median Tumor Volume,"DU-145 tumors; Day 11, 39-S 1.00 mg/Kg iv Days 0, 7 and 14",349.7 mm^3
same,Median Tumor Volume,"DU-145 tumors; Day 14, 39-S 1.00 mg/Kg iv Days 0, 7 and 14",429.1 mm^3
same,Median Tumor Volume,"DU-145 tumors; Day 16, 39-S 1.00 mg/Kg iv Days 0, 7 and 14",454.8 mm^3
same,Median Tumor Volume,"DU-145 tumors; Day 18, 39-S 1.00 mg/Kg iv Days 0, 7 and 14",449.7 mm^3
same,Median Tumor Volume,"DU-145 tumors; Day 21, 39-S 1.00 mg/Kg iv Days 0, 7 and 14",517.5 mm^3
same,Median Tumor Volume,"DU-145 tumors; Day 23, 39-S 1.00 mg/Kg iv Days 0, 7 and 14",568.5 mm^3
same,Median Tumor Volume,"DU-145 tumors; Day 25, 39-S 1.00 mg/Kg iv Days 0, 7 and 14",629.4 mm^3
same,Median Tumor Volume,"DU-145 tumors; Day 28, 39-S 1.00 mg/Kg iv Days 0, 7 and 14",775.7 mm^3
COc1ccc2[nH]c3c(c2c1)C[C@H](CO)N[C@]31CS[C@@H]2c3c(OC(C)=O)c(C)c4c(c3[C@H](COC1=O)N1[C@@H]2[C@H]2c3c(cc(C)c(OC)c3O)C[C@@H]([C@@H]1O)N2C)OCO4 [Compound 19-R],TGI,"A549 cells; A549, 72 hours treatment, SRB",3.56E−09 Molar
same,CC50,"A549 cells; A549, 72 hours treatment, SRB",> 123 nM
same,TGI,MDA-MB-231 cells; [3],1.35E−09 Molar
same,CC50,MDA-MB-231 cells; [3],> 123 nM
same,TGI,"PSN1 cells; PSN1, 72 hours treatment, SRB",1.35E−09 Molar
same,MTD,[2],0.15 mg/kg
same,MTMD,[1],0.15 mg/kg
